PMC10545747, “Development of cyclopeptide inhibitors of cGAS targeting protein-DNA interaction and phase separation” (Nature Communications, 2023)
Where “and” joins values, the source holds several entries; their conditions need not be identical. Equal values may be shown once. Square brackets hold non-standard residues; d marks the D form. Peptide text beside a SMILES is read from it. Hyp = O=C(O)[C@@H]1C[C@@H](O)CN1

Biological target: T1, recombinant human cGAS enzyme (hcGAS-ΔN, residues 147–522) (Homo sapiens, UniProt Q8N884)
T1 construct: N-terminally truncated human cGAS (hcGAS-ΔN, residues 147–522); 6xHis-SUMO (N, cleaved yes); made in house; host or cells: Escherichia coli BL21 (DE3)
Assay: RNA-based fluorescent biosensor assay of cGAS activity (2',3'-cGAMP formation), in vitro screening
Type: biochemical
Conditions: for Remaining activity (%), Fig. 1a source data / remaining activity at 20 µM: 20 μM, replicate values; for remaining activity at 20 µM: read-out: Remaining activity (%), Fig. 1a source data; for inhibition at 20 µM: peptides screened at 20 μM, Supplementary Table 1 / Fig. S5b, read-out: Inhibition %
Text: To screen direct cGAS inhibitors targeting protein-DNA interface from our developed focused library of macrocyclic peptides, we applied an RNA-based fluorescent biosensor for 2’,3’-cGAMP to detect cGAS activity in vitro (Supplementary Fig. 1a)[49]. The formation of 2’,3’-cGAMP from ATP and GTP was catalyzed by recombinant human cGAS enzyme (hcGAS-ΔN, residues 147–522, Supplementary Fig. 1b) in the presence of ISD (interferon stimulatory DNA, a 45-bp dsDNA), which was readily quantified by the RNA-based fluorescent biosensor and was further confirmed by ion exchange chromatography (Supplementary Fig. 1c). […] Subsequently, a total of 90 macrocyclic peptides were screened at a concentration of 20 μM (Fig. 1a and Supplementary Fig. 1e), and 4 hits (XQ2, XQ8, XQ19, and XQ46) were obtained for further testing at a cut-off of 40% inhibition (Supplementary Table 1). To evaluate the inhibitory effect of the hits against cGAS in cells, we employed real-time quantitative PCR (qPCR) to examine mRNA levels of IFNΒ1 in THP1 cells. The reported cGAS inhibitor RU.521 was used as the positive control, and the non-active peptide XQ28 in the screening assay was used as the negative control. […] The inhibition of cGAS by these hits was further confirmed in the reporter cell line THP1-Lucia ISG (Invivogen) that expresses secreted luciferase induced by an IRF3-inducible ISG54 promoter (Fig. 1c). The discrepancy between the inhibitory effect of the hits in protein and cellular assays may be attributed to their different cellular permeability.
The high-throughput screening (HTS) experiments of cGAS activity are based on the method previously described. To initiate the enzyme reaction, ISD was added to the reaction solution (40 mM Tris-HCl, pH 7.5, 100 mM NaCl, 10 mM MgCl2) containing hcGAS-ΔN, ATP (Sangon Biotech, Cat# A600311) and GTP (Sangon Biotech, Cat# A620332) in a total volume of 20 ul with the final concentration of 0.5 μM, 1.5 μM, 1 mM, 1 mM, respectively, and incubated for 2 h at 37 °C. For HTS experiments, compounds were added to the same reaction conditions as described above with the final concentration of 20 μM. Z’ factors were calculated from three replicates in the 384-well plate.

T1 sequence (Q8N884 147-522, stated change not applied): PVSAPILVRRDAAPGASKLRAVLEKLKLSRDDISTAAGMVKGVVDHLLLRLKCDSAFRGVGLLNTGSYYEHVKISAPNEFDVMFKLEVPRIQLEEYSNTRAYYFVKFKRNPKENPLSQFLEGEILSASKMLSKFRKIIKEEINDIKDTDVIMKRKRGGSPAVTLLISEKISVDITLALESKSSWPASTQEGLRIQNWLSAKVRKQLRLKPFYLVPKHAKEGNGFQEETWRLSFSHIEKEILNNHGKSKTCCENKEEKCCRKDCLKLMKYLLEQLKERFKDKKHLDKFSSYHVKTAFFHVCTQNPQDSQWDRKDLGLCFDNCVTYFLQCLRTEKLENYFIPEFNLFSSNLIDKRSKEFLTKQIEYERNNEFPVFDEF

Row | Structure (SMILES) | Remaining activity (%), Fig. 1a source data | remaining activity at 20 µM | inhibition at 20 µM
1 | CC(C)C[C@@H]1NC(=O)[C@H](CCCNC(=N)N)NC(=O)[C@H](C(C)C)NC(=O)[C@@H]2CCCN2C(=O)[C@@H](Cc2ccccc2)NC(=O)[C@H](C)NC(=O)[C@H](CCCNC(=N)N)NC(=O)[C@H](C(C)C)NC(=O)[C@@H]2CCCN2C(=O)[C@@H](C)NC1=O [XQ21, Cyclo (AfPVRLaPVR)] (cyclo(A[dF]PVRL[dA]PVR)) | 107.409% and 108.531% | 108% | 0%
2 | CC(C)[C@@H]1NC(=O)[C@@H]2CCCN2C(=O)[C@@H](C)NC(=O)[C@H](C)NC(=O)[C@H](CCCNC(=N)N)NC(=O)[C@H](C(C)C)NC(=O)[C@@H]2CCCN2C(=O)[C@@H](Cc2ccccc2)NC(=O)[C@H](C)NC(=O)[C@H](CCCNC(=N)N)NC1=O [XQ22, Cyclo (AaPVRAfPVR)] (cyclo(A[dA]PVRA[dF]PVR)) | 99.3962% and 98.6078% | 102% | 0%
3 | CC(C)C[C@H]1NC(=O)[C@H](Cc2ccccc2)NC(=O)[C@H]2CCCN2C(=O)[C@@H]([C@H](C)O)NC(=O)[C@@H](CCCNC(=N)N)NC(=O)[C@@H](CC(C)C)NC(=O)[C@H](Cc2ccccc2)NC(=O)[C@H]2CCCN2C(=O)[C@@H](C(C)C)NC(=O)[C@@H](CCCNC(=N)N)NC1=O [XQ23, Cyclo (tpFlrvpFlr)] (cyclo(F[dL][dR][dT][dP]F[dL][dR][dV][dP])) | 103.183% and 102.415% | 103% | 0%
4 | CC(C)C[C@H]1NC(=O)[C@H](Cc2ccccc2)NC(=O)[C@H]2CCCN2C(=O)[C@@H]([C@H](C)O)NC(=O)[C@@H](CCCNC(=N)N)NC(=O)[C@@H](CC(C)C)NC(=O)[C@H](Cc2ccccc2)NC(=O)[C@H]2CCCN2C(=O)[C@@H]([C@H](C)O)NC(=O)[C@@H](CCCNC(=N)N)NC1=O [XQ24, Cyclo (tpFlrtpFlr)] (cyclo(F[dL][dR][dT][dP]F[dL][dR][dT][dP])) | 93.4684% and 95.0442% | 94.2% | 5%
5 | CC(C)C[C@@H]1NC(=O)[C@H](CCCNC(=N)N)NC(=O)[C@@H]2CCCN2C(=O)[C@@H](Cc2ccccc2)NC(=O)[C@H](CCCNC(=N)N)NC(=O)[C@H](C(C)C)NC(=O)[C@@H]2CCCN2C(=O)[C@@H](Cc2ccccc2)NC1=O [XQ25, Cyclo (fPVRfPRL)] (cyclo(L[dF]PVR[dF]PR)) | 114.007% and 112.821% | 112% | 0%
6 | N=C(N)NCCC[C@@H]1NC(=O)[C@@H]2CCCN2C(=O)[C@@H](Cc2ccccc2)NC(=O)[C@H](CCCNC(=N)N)NC(=O)[C@@H]2CCCN2C(=O)[C@@H](Cc2ccccc2)NC1=O [XQ26, Cyclo (PRfPRf)] (cyclo(PR[dF]PR[dF])) | 116.041% and 118.595% | 116% | 0%
7 | N=C(N)NCCC[C@@H]1NC(=O)[C@@H]2CCCN2C(=O)[C@H](Cc2ccccc2)NC(=O)[C@H](CCCNC(=N)N)NC(=O)[C@@H]2CCCN2C(=O)[C@@H](Cc2ccccc2)NC1=O [XQ27, Cyclo (RfPRFP)] (cyclo(FPR[dF]PR)) | 109.194% and 109.746% | 107% | 0%
8 | CC(C)C[C@@H]1NC(=O)[C@H](CCCNC(=N)N)NC(=O)[C@H]([C@@H](C)O)NC(=O)[C@@H]2CCCN2C(=O)[C@@H](Cc2ccccc2)NC(=O)[C@H](Cc2ccccc2)NC(=O)[C@H](CCCNC(=N)N)NC(=O)[C@H]([C@@H](C)O)NC(=O)[C@@H]2CCCN2C(=O)[C@@H](Cc2ccccc2)NC1=O [XQ29, Cyclo (FfPTRLfPTR)] (cyclo(F[dF]PTRL[dF]PTR)) | 92.9858% and 93.5702% | 92.7% | 7%
9 | CC(C)C[C@@H]1NC(=O)[C@H](CCCNC(=N)N)NC(=O)[C@H]([C@@H](C)O)NC(=O)[C@@H]2CCCN2C(=O)[C@@H](Cc2ccccc2)NC(=O)[C@H](C(C)C)NC(=O)[C@H](CCCNC(=N)N)NC(=O)[C@H]([C@@H](C)O)NC(=O)[C@@H]2CCCN2C(=O)[C@@H](Cc2ccccc2)NC1=O [XQ30, Cyclo (VfPTRLfPTR)] (cyclo(L[dF]PTRV[dF]PTR)) | 93.0523% and 92.7481% | 93.2% | 7%
10 | CC(C)C[C@@H]1NC(=O)[C@H](CCCNC(=N)N)NC(=O)[C@H]([C@@H](C)O)NC(=O)[C@@H]2CCCN2C(=O)[C@@H](C(C)C)NC(=O)[C@H](CC(C)C)NC(=O)[C@H](CCCNC(=N)N)NC(=O)[C@H]([C@@H](C)O)NC(=O)[C@@H]2CCCN2C(=O)[C@@H](Cc2ccccc2)NC1=O [XQ31, Cyclo (LvPTRLfPTR)] (cyclo(L[dF]PTRL[dV]PTR)) | 70.1575% and 70.5622% | 69.4% | 30%
11 | CC(C)C[C@@H]1NC(=O)[C@H](CCCNC(=N)N)NC(=O)[C@H]([C@@H](C)O)NC(=O)[C@@H]2CCCN2C(=O)[C@@H](Cc2ccccc2)NC(=O)[C@H](CC(C)C)NC(=O)[C@H](CCCNC(=N)N)NC(=O)[C@H]([C@@H](C)O)NC(=O)[C@@H]2CCCN2C(=O)CNC1=O [XQ32, Cyclo (LgPTRLfPTR)] (cyclo(GPTRL[dF]PTRL)) | 69.874% and 69.5698% | 69.3% | 30%
12 | CC(C)C[C@@H]1NC(=O)[C@H](CCCNC(=N)N)NC(=O)[C@H]([C@@H](C)O)NC(=O)[C@@H]2C[C@@H](O)CN2C(=O)[C@@H](Cc2ccccc2)NC(=O)[C@H](CC(C)C)NC(=O)[C@H](CCCNC(=N)N)NC(=O)[C@H]([C@@H](C)O)NC(=O)[C@@H]2CCCN2C(=O)[C@@H](Cc2ccccc2)NC1=O [XQ33, Cyclo (Lf(Hyp)TRLfPTR)] (cyclo([Hyp]TRL[dF]PTRL[dF])) | 98.2995% and 98.5649% | 97.1% | 2%
13 | CC(C)C[C@@H]1NC(=O)[C@H](CCCNC(=N)N)NC(=O)[C@H]([C@@H](C)O)NC(=O)[C@@H]2CCCN2C(=O)[C@@H](Cc2ccccc2)NC(=O)[C@H](CC(C)C)NC(=O)[C@H](CCCNC(=N)N)NC(=O)[C@H]([C@@H](C)O)NC(=O)[C@@H]2CCCN2C(=O)[C@@H](C)NC1=O [XQ34, Cyclo (LaPTRLfPTR)] (cyclo(L[dA]PTRL[dF]PTR)) | 102.306% and 102.914% | 103% | 0%
14 | CC(C)C[C@@H]1NC(=O)[C@H](CCCNC(=N)N)NC(=O)[C@H]([C@@H](C)O)NC(=O)[C@@H]2CCCN2C(=O)[C@@H](Cc2ccccc2)NC(=O)[C@H](CC(C)C)NC(=O)[C@H](CCCNC(=N)N)NC(=O)[C@H]([C@@H](C)O)NC(=O)[C@H](C)NC(=O)[C@@H](Cc2ccccc2)NC1=O [XQ35, Cyclo (LfATRLfPTR)] (cyclo(ATRL[dF]PTRL[dF])) | 106.53% and 106.617% | 106% | 0%
15 | CC(C)C[C@@H]1NC(=O)[C@H](CCCNC(=N)N)NC(=O)[C@H]([C@@H](C)O)NC(=O)[C@@H]2CCCN2C(=O)[C@@H](Cc2ccccc2)NC(=O)[C@H](CC(C)C)NC(=O)[C@H](CCCNC(=N)N)NC(=O)[C@H](C)NC(=O)[C@@H]2CCCN2C(=O)[C@@H](Cc2ccccc2)NC1=O [XQ36, Cyclo (LfPARLfPTR)] (cyclo(ARL[dF]PTRL[dF]P)) | 88.7067% and 87.9053% | 89.5% | 11%
16 | CC(C)C[C@@H]1NC(=O)[C@H](CCCNC(=N)N)NC(=O)[C@H]([C@@H](C)O)NC(=O)[C@@H]2CCCN2C(=O)[C@@H](Cc2ccccc2)NC(=O)[C@H](C)NC(=O)[C@H](CCCNC(=N)N)NC(=O)[C@H]([C@@H](C)O)NC(=O)[C@@H]2CCCN2C(=O)[C@@H](Cc2ccccc2)NC1=O [XQ37, Cyclo (AfPTRLfPTR)] (cyclo(A[dF]PTRL[dF]PTR)) | 81.1407% and 81.3464% | 81% | 18%
17 | CC(C)C[C@@H]1NC(=O)[C@H](CCCNC(=N)N)NC(=O)[C@H](C(C)C)NC(=O)[C@@H]2CCCN2C(=O)[C@@H](Cc2ccccc2)NC(=O)[C@H](CC(C)C)NC(=O)[C@H](CCCNC(=N)N)NC(=O)[C@H](C(C)C)NC(=O)[C@@H]2CCCN2C(=O)[C@@H](Cc2ccccc2)NC1=O [XQ38, Cyclo (LfPVRLfPVR)] (cyclo(L[dF]PVRL[dF]PVR)) | 112.545% and 112.328% | 113% | 0%
